Test results from patent publication US12415786B2, “Substituted 2-heteroarylaminobenzenes and the salts thereof and their use as herbicidal agents” (Bayer Aktiengesellschaft, priority 2019, dated 2025).

Assays:
Format in all cases: in vivo
Amaranthus retroflexus [1] = assay: Herbicidal post-emergence action (greenhouse pots), AMARE; settings: 1280 g/ha, visual rating about 3 weeks after treatment vs untreated controls
Procedure, shortened: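 Foliar application to potted greenhouse weeds at the one-leaf stage used 1280 g/ha in 600 L/ha water with 0.5% additive (WP or EC). Plants then stayed under optimum conditions about 3 weeks before visual rating, where 100% meant death and 0% matched untreated.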

Stellaria media [2] = assay: Herbicidal pre-emergence action (greenhouse pots), STEME; settings: 1280 g/ha, visual scoring after about 3 weeks vs untreated controls
Procedure, shortened: (§1)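 Visual % activity (0 = like untreated, 100 = plants dead) scored about 3 weeks after treatment. Sandy loam pots were doubly sown with one monocot and one dicot species each. WP/EC formulations at 1280 g/ha were sprayed onto the soil surface in 600 L/ha water containing 0.5% additive.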

Echinochloa crus-galli [3] = assay: Herbicidal post-emergence action (greenhouse pots), ECHCG; settings: 1280 g/ha, rated after about 3 weeks, 100% = plants have died, 0% = like untreated control plants
Text: (§2) In the examples and tables below, the following abbreviations are used: • Undesired Plants/Weeds: • ABUTH: Abutilon theophrasti • AGSTE: Agrostis tenuis • AMARE Amaranthus retroflexus • ECHCG: Echinochloa crus-galli • LOLRI: Lolium rigidum • MATIN: Matricaria inodora • POAAN: Poa annua • SETVI: Setaria viridis • STEME: Stellaria media A. Herbicidal Early Post-Emergence Action Seeds of mono- and dicotyledonous weed plants were placed in plastic pots in sandy loam soil (doubly sown with in each case one species of mono- or dicotyledonous weed plants per pot), covered with soil and cultivated in a greenhouse under controlled growth conditions. 2 to 3 weeks after sowing, the test plants were treated at the one-leaf stage. The compounds of the invention, formulated in the form of wettable powders (WP) or as emulsion concentrates (EC), were applied onto the green parts of the plants as aqueous suspension or emulsion with addition of 0.5% additive at a water application rate of 600 liters per hectare (converted). After the test plants had been kept in the greenhouse under optimum growth conditions for about 3 weeks, the activity of the preparations was rated visually in comparison to untreated controls. For example, 100% activity=the plants have died, 0% activity=like untreated control plants. Tables B1-B8 below show the effects of selected compounds of the general formula (I) according to Table 1 above on various harmful plants and an application rate corresponding to 1280 g/ha, which were obtained by the experimental procedure mentioned above.

Lolium rigidum = assay: Herbicidal pre-emergence action (greenhouse pots), LOLRI; settings: 1280 g/ha, visual scoring after about 3 weeks vs untreated controls
Text: (§3) In the examples and tables below, the following abbreviations are used: • Undesired Plants/Weeds: • ABUTH: Abutilon theophrasti • AGSTE: Agrostis tenuis • AMARE Amaranthus retroflexus • ECHCG: Echinochloa crus-galli • LOLRI: Lolium rigidum • MATIN: Matricaria inodora • POAAN: Poa annua • SETVI: Setaria viridis • STEME: Stellaria media A. Herbicidal Early Post-Emergence Action Seeds of mono- and dicotyledonous weed plants were placed in plastic pots in sandy loam soil (doubly sown with one species each of mono- or dicotyledonous weed plants per pot) and covered with soil. The compounds of the invention, formulated in the form of wettable powders (WP) or as emulsion concentrates (EC), were then applied onto the surface of the covering soil as aqueous suspension or emulsion with addition of 0.5% additive at a water application rate of 600 liters per hectare (converted). After the treatment, the pots were placed in a greenhouse and kept under good growth conditions for the test plants. After about 3 weeks, the effect of the preparations was scored visually in comparison with untreated controls as percentages. For example, 100% activity=the plants have died, 0% activity=like untreated control plants. Tables C1-C8 below show the effects of selected compounds of the general formula (I) according to Table 1 above on various harmful plants and an application rate corresponding to 1280 g/ha, which were obtained by the experimental procedure mentioned above.

Matricaria inodora = assay: Herbicidal pre-emergence action (greenhouse pots), MATIN; settings: 1280 g/ha, visual scoring after about 3 weeks vs untreated controls
Text: as §3

Setaria viridis [4] = assay: Herbicidal pre-emergence action (greenhouse pots), SETVI; settings: 1280 g/ha, visual scoring after about 3 weeks vs untreated controls
Procedure, shortened: as §1

Setaria viridis [5] = assay: Herbicidal post-emergence action (greenhouse pots), SETVI; settings: 1280 g/ha, rated after about 3 weeks, 100% = plants have died, 0% = like untreated control plants
Text: as §2

Amaranthus retroflexus [6] = assay: Herbicidal pre-emergence action (greenhouse pots), AMARE; settings: 1280 g/ha, visual scoring after about 3 weeks vs untreated controls
Procedure, shortened: as §1

Echinochloa crus-galli [7] = assay: Herbicidal pre-emergence action (greenhouse pots), ECHCG; settings: 1280 g/ha, visual scoring after about 3 weeks vs untreated controls
Text: as §3

Agrostis tenuis = assay: Herbicidal early post-emergence action (96-well microtiter plates), AGSTE; settings: 1900 g/ha, scored 9 to 12 days after treatment, 100% = plants have died, 0% = like untreated control plants
Procedure, shortened: (§4)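 Activity was scored by eye 9 to 12 days after treatment (100% = plants dead, 0% = like untreated controls). Spraying used emulsion concentrates at 1900 g/ha in 2200 L/ha water, applied to cotyledon-stage seedlings raised 5 to 7 days in quartz sand in 96-well plates under controlled conditions.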

Poa annua [8] = assay: Herbicidal early post-emergence action (96-well microtiter plates), POAAN; settings: 1900 g/ha, scored 9 to 12 days after treatment, 100% = plants have died, 0% = like untreated control plants
Procedure, shortened: as §4

Abutilon theophrasti [9] = assay: Herbicidal post-emergence action (greenhouse pots), ABUTH; settings: 1280 g/ha, visual rating about 3 weeks after treatment vs untreated controls
Text: as §2

Stellaria media [10] = assay: Herbicidal post-emergence action (greenhouse pots), STEME; settings: 1280 g/ha, visual rating about 3 weeks after treatment vs untreated controls
Text: as §2

Poa annua [11] = assay: Herbicidal pre-emergence action (greenhouse pots), POAAN; settings: 1280 g/ha, visual scoring after about 3 weeks vs untreated controls
Procedure, shortened: as §1

Poa annua [12] = assay: Herbicidal post-emergence action (greenhouse pots), POAAN; settings: 1280 g/ha, visual rating about 3 weeks after treatment vs untreated controls
Text: as §2

Abutilon theophrasti [13] = assay: Herbicidal pre-emergence action (greenhouse pots), ABUTH; settings: 1280 g/ha, visual scoring after about 3 weeks vs untreated controls
Text: as §3

Row | Structure (SMILES) | herbicidal activity AMARE (Amaranthus retroflexus [1]) | herbicidal activity STEME (Stellaria media [2]) | ECHCG (herbicidal activity, rated visually in comparison to untreated controls) (Echinochloa crus-galli [3]) | herbicidal activity LOLRI (Lolium rigidum) | herbicidal activity MATIN (Matricaria inodora) | herbicidal activity SETVI (Setaria viridis [4]) | SETVI (herbicidal activity, rated visually in comparison to untreated controls) (Setaria viridis [5]) | herbicidal activity AMARE (Amaranthus retroflexus [6]) | herbicidal activity ECHCG (Echinochloa crus-galli [7]) | AGSTE (herbicidal activity, scored visually in comparison to untreated controls) (Agrostis tenuis) | POAAN (herbicidal activity, scored visually in comparison to untreated controls) (Poa annua [8]) | herbicidal activity ABUTH (Abutilon theophrasti [9]) | herbicidal activity STEME (Stellaria media [10]) | herbicidal activity POAAN (Poa annua [11]) | herbicidal activity POAAN (Poa annua [12]) | herbicidal activity ABUTH (Abutilon theophrasti [13])
1 | N#Cc1cccc(Nc2ncccn2)c1Oc1ccc(F)c(F)c1 [Example 1-253] | 100% | 100% | 100% | 100% | 100% | 100% | 90% | 100% | 100% | 100% | 100% | 100% | 100% | 100% |  | 
2 | N#Cc1ccc(Oc2c(C#N)cccc2Nc2ncc(Cl)cn2)cc1 [Example 1-299] | 100% | 100% |  | 90% |  | 100% | 90% | 100% |  | 80% | 100% |  | 100% | 100% |  | 
3 | N#Cc1cccc(Nc2ncc(Cl)cn2)c1Oc1ccc(Cl)nc1 [Example 3-56] | 100% | 100% | 100% |  | 100% | 100% | 100% | 100% | 100% | 100% | 100% | 100% | 100% | 100% | 100% | 100%
4 | Cc1cnc(Nc2cccc(C#N)c2Oc2ccc(F)cc2)nc1 [Example 1-308] | 100% | 100% | 100% |  | 100% | 100% | 100% | 100% | 90% | 100% | 100% | 100% | 100% | 100% | 100% | 100%
5 | N#Cc1ccc(Oc2c(C#N)cccc2Nc2ncc(F)cn2)cc1 [Example 1-280] | 100% | 100% |  |  | 100% | 100% |  | 100% | 100% | 100% | 100% |  | 100% | 100% |  | 100%
6 | N#Cc1cccc(Nc2ncc(F)cn2)c1Oc1ccc(C(F)(F)F)cc1 [Example 1-279] | 100% | 100% |  | 90% | 90% | 100% |  | 100% |  | 80% | 100% |  | 100% | 100% | 100% | 
7 | N#Cc1ccc(Oc2c(C#N)cccc2Nc2ncccn2)cc1 [Example 1-261] | 100% | 100% |  |  | 100% | 100% |  | 100% | 100% | 80% | 80% |  |  | 100% |  | 100%
8 | N#Cc1cccc(Nc2ncc(F)cn2)c1Oc1cccc(C(F)(F)F)c1 [Example 1-278] | 100% | 100% | 90% | 100% | 100% | 100% |  | 100% |  | 100% | 100% | 90% | 100% | 100% |  | 
9 | N#Cc1cccc(Nc2ncc(Cl)cn2)c1Oc1ccc(Cl)cc1F [Example 1-294] | 100% | 100% |  |  |  | 100% |  | 100% | 90% | 80% | 100% |  | 100% | 100% | 100% | 90%
10 | N#Cc1cccc(Nc2ncc(F)cn2)c1Oc1cccc(Cl)c1 [Example 1-268] | 90% |  |  |  |  |  |  | 90% |  | 100% | 80% |  |  |  |  | 90%
11 | N#Cc1cccc(Nc2ncc(Cl)cn2)c1Oc1ccc(F)c(F)c1 [Example 1-291] | 100% | 100% | 100% | 100% | 100% | 100% | 100% | 100% | 90% | 100% | 100% | 100% | 100% | 100% | 100% | 
